Reference: US20050245541A1, “Methods for treating alcoholism” (priority 2004, published 2005)
“Also recorded” adds a separate entry of the source.

Columns and labels:
[1] = tested on: rat model of alcohol self-administration; assay: Ethanol self-administration (operant lever press) in trained rats; type: in vivo, rat (male Wistar)
Description: FIG. 1B is a bar graph showing the amount of ethanol (EtOH) consumed in g/kg at various doses of naltrexone. Based on the number of lever press responses following a dose of naltrexone (FIG. 1A), the corresponding amount of absolute ethanol consumed (g/kg) was calculated. To calculate the amount of absolute ethanol consumed, divide the number of lever presses by 2 to obtain the number of earned reinforcements. From this number, the total volume of the alcohol “cocktail” (10% EtOH in 0.04% saccharine solution) consumed was obtained. The grams of absolute EtOH consumed=the total “cocktail” volume consumed×10% EtOH×0.793 g EtOH/mL. The amount of ethanol (g) divided by the animal's weight (kg) gives the amount of absolute ethanol consumed in g/kg.
(§1) Male Wistar rats (starting weight of 200±30 grams; Charles River Laboratories, Mass.) were individually housed with free access to food and water. The vivarium was maintained within the temperature and relative humidity range specified within the Guide for Care and Use of Laboratory Animals (NIH Publication No. 86-23, revised 1985). These conditions were recorded once daily throughout the study. The vivarium was on a 12 hour light/dark schedule. All animal studies were reviewed and approved by the Alkermes' IACUC (protocol #04-2A).
Animals were trained daily in an operant chamber to press a lever to receive access to an ethanol cocktail as a reinforcer using a saccharin fading procedure. […] The final ethanol cocktail contained 10% ethanol in 0.04% saccharine. Each session lasted 30 minutes, during which the rat could press the lever twice to gain access to 0.1 mL of the ethanol cocktail. The operant chamber (Coulbourne Instruments, Allentown, Pa.) is a computer-controlled automated system which recorded the number of lever presses completed by a rat. At the end of the training period (6-8 weeks), rats which consistently drank a sufficient quantity of ethanol to produce a pharmacological effect (minimum intake of 0.6 g/kg/hour) were selected to participate in the drug studies. These trained rats were used repeatedly throughout these studies to control for intra-subject variability. All drugs were administered acutely with a minimum of a 2 day drug washout period.
Naltrexone was prepared daily in 0.9% saline and administered subcutaneously (SC). The dopamine D2 partial agonist aripiprazole was suspended in 3% carboxymethyl cellulose; a total volume of 1 mL/kg of this suspension was delivered orally (PO) to the rat using a gavage tube. See Table 1 for source and lot numbers of the drugs tested.
The ability of naltrexone to reduce ethanol drinking (i.e., decrease the number of lever presses) was assessed in this animal model of self administration of ethanol. Thirty minutes after the administration of naltrexone (0-6 mg/kg, SC), the animals were placed in the operant chamber and allowed to lever press for the 10% ethanol cocktail. The total number of lever presses was recorded over the 30 minute test session. The rats were repeatedly dosed with naltrexone to generate a dose-response curve for each individual animal.
The dopamine D2 partial agonist aripiprazole was coadministered with naltrexone to determine if it affected naltrexone's ability to decease ethanol drinking. The dose of naltrexone used in this series of studies was the ED50 (that is, the dose of naltrexone that produced a 50% decrease in lever responses for ethanol as determined from the dose-response study). This dose allows one to determine if the coadministered drugs impaired or enhanced naltrexone's effect on ethanol drinking. Aripiprazole was administered orally 30 minutes prior to a naltrexone injection (SC) (i.e., 60 minutes prior to the beginning of the ethanol drinking test session). The number of lever presses for the ethanol cocktail was recorded at the end of the 30 minute session.

[2] = tested on: audiogenic-induced convulsions in mice exhibiting symptoms of alcohol withdrawal; assay: Audiogenic-induced convulsions in mouse model of alcohol withdrawal; type: in vivo, mouse (male C57BL/6); conditions: for Withdrawal Rating (mean ± sem), behavioral response scale of 1-4: mouse
Description: as §1, with “C57BL/6 mice” for “Wistar rats”, “15-18” for “200±30”, “were” for “were individually”, “housed in groups of 4 on a ventilated rack” for “housed”, “#04-8A).” for “#04-2A).”
Persistent high alcohol levels in blood and brain are required to develop withdrawal symptoms following termination of alcohol availability. […] Alcohol is provided in a nutritionally balanced liquid diet. This diet becomes the animal's sole source of food and water. While the experimenter controls the duration of the alcohol exposure, the animal determines the dose and pattern of consumption.
After a 3-5 day acclimation period, the mice were individually identified (tail mark with permanent marker) and weighed. The normal rodent chow and water was replaced with a nutritionally complete control liquid diet (Bio-Serv, Lieber-DeCarli diet) for a 5-7 day habituation period. Acquisition of EtOH drinking in mice involved a gradually escalating ethanol concentration procedure. Ethanol treated animals received an EtOH liquid diet containing 1.5% EtOH for 5-7 days. The EtOH concentration was increased every 5-7 days to a final concentration of 6.7%. The liquid diet was administered in a screw capped graduated 100 mL liquid feeding tube mounted inside the cage. The volume of remaining diet was measured and the diet changed daily. The mice were observed daily and weighed every week to assure adequate EtOH diet intake.
Development of alcohol withdrawal symptoms requires a cycle of alcohol/no alcohol. The animals were given a period of 14 days of the EtOH diet (6.7%), 2 days of control diet (balanced isocalorically with maltose dextrin replacing the EtOH) and 5-6 days of the EtOH diet.
One of the hallmark symptoms of alcohol withdrawal in mice is the occurrence of convulsions. These can occur spontaneously, from handling the animal, from a sudden loud sound (audiogenic) or from subthreshold doses of chemical convulsants. For this series of studies, the occurrence of audiogenic-induced convulsions was used as a measure of alcohol withdrawal. […]
Mice from each cage were randomly assigned to one of three groups, vehicle+saline, aripiprazole (10 mg/kg, PO)+saline, or aripiprazole (10 mg/kg, PO)+naltrexone (3 mg/kg, IP). […] Each mouse's behavior in response to the bell was observed by two investigators and the agreed upon results were recorded.

[3] = tested on: rat model of alcohol self-administration; assay: Ethanol self-administration (operant lever press) in trained rats; type: in vivo, rat (male Wistar); conditions: naltrexone 0.5 mg/kg sc, 0.1% saccharine solution substituted for ethanol cocktail

Structure (SMILES) | Number of Lever Presses (mean ± sem) ([1]; aripiprazole 0.1 mg/kg PO + naltrexone 0.1 mg/kg SC, rat) | Number of Lever Presses (mean ± sem) ([1]; aripiprazole 1.0 mg/kg PO + naltrexone 0.1 mg/kg SC, rat) | Number of Lever Presses (mean ± sem) ([1]; aripiprazole 10.0 mg/kg PO + naltrexone 0.1 mg/kg SC, rat) | Number of Lever Presses (mean ± sem) ([1]; aripiprazole 10.0 mg/kg PO, no naltrexone, rat) | Ethanol-motivated lever presses, combination of naltrexone and aripiprazole versus naltrexone alone ([1]; aripiprazole 0.1-10 mg/kg PO + naltrexone SC, rat) | Withdrawal Rating (mean ± sem), behavioral response scale of 1-4 ([2]; aripiprazole 10 mg/kg PO + naltrexone 3 mg/kg) | Withdrawal Rating (mean ± sem), behavioral response scale of 1-4 ([2]; aripiprazole 10 mg/kg PO + saline) | Anticonvulsant effect on the audiogenic convulsion test ([2]; aripiprazole 10 mg/kg PO with or without naltrexone, p=0.004) | Number of Lever Presses (mean ± sem) ([1]; aripiprazole 0.0 mg/kg PO (vehicle) + naltrexone 0.1 mg/kg SC, rat) | Decrease in lever presses versus baseline and vehicle control (significance) ([1]; lowest dose of naltrexone tested, 0.05 mg/kg) | Decrease in the number of lever presses compared to baseline ([1]; naltrexone alone group of the aripiprazole interaction study (naltrexone 0.1 mg/kg SC per Table 4)) [%] | Difference between naltrexone and non-naltrexone groups on the audiogenic convulsion test ([2]; naltrexone 3 mg/kg coadministered with aripiprazole 10 mg/kg PO) | Specificity of decrease in drinking: lever pressing for saccharine versus ethanol cocktail [3]
O=C1CCc2ccc(OCCCCN3CCN(c4cccc(Cl)c4Cl)CC3)cc2N1 [Aripiprazole, 7-{4-[4-(2,3-dichlorophenyl)-1-piperazinyl]-butoxy}-3-,4-dihydro carbostyril] | 42 ± 11 | 45 ± 8 | 37 ± 7 | 118 ± 26 | no statistical difference | 1.0 ± 0.0 | 1.0 ± 0.0 | significant drug effect (anticonvulsant effect) |  |  |  |  | 
O=C1CC[C@@]2(O)[C@H]3Cc4ccc(O)c5c4[C@@]2(CCN3CC2CC2)[C@H]1O5 [Naltrexone] |  |  |  |  |  |  |  |  | 62 ± 13 | no significant decrease | 47.54 | no statistical differences | to the same degree as under the non-drug baseline condition; also recorded: selective for decreasing ethanol drinking in rats (but not saccharine drinking)
